From the supplement of paper PMC13380429

Key:
Settings in all cases: 72 h
Caco-2 [1] = experiment: cell viability relative to DMSO; higher = less toxic
Calu-3 [2] = experiment: as above
U2OS [3] = experiment: as above
HepG2 [4] = experiment: as above
Caco-2 [5] = experiment: drug sensitivity score (DSS) for viability; higher = more toxic; extreme values may be limits of the assay
Calu-3 [6] = experiment: as above
U2OS [7] = experiment: as above
HepG2 [8] = experiment: as above
Caco-2 [9] = experiment: relative viability EC50 (midpoint between 100% and the lowest measured viability); higher = less toxic
Calu-3 [10] = experiment: as above
U2OS [11] = experiment: as above
HepG2 [12] = experiment: as above
Vero E6 [13] = experiment: cell viability relative to DMSO; higher = less toxic
Vero E6 [14] = experiment: drug sensitivity score (DSS) for viability; higher = more toxic; extreme values may be limits of the assay
Vero E6 [15] = experiment: relative viability EC50 (midpoint between 100% and the lowest measured viability); higher = less toxic

SMILES | cell viability (Caco-2 [1]; 1 nM) [%] | cell viability (Caco-2 [1]; 10 nM) [%] | cell viability (Caco-2 [1]; 100 nM) [%] | cell viability (Caco-2 [1]; 1000 nM) [%] | cell viability (Caco-2 [1]; 10000 nM) [%] | cell viability (Calu-3 [2]; 1 nM) [%] | cell viability (Calu-3 [2]; 10 nM) [%] | cell viability (Calu-3 [2]; 100 nM) [%] | cell viability (Calu-3 [2]; 1000 nM) [%] | cell viability (Calu-3 [2]; 10000 nM) [%] | cell viability (U2OS [3]; 1 nM) [%] | cell viability (U2OS [3]; 10 nM) [%] | cell viability (U2OS [3]; 100 nM) [%] | cell viability (U2OS [3]; 1000 nM) [%] | cell viability (U2OS [3]; 10000 nM) [%] | cell viability (HepG2 [4]; 1 nM) [%] | cell viability (HepG2 [4]; 10 nM) [%] | cell viability (HepG2 [4]; 100 nM) [%] | cell viability (HepG2 [4]; 1000 nM) [%] | cell viability (HepG2 [4]; 10000 nM) [%] | drug sensitivity score (Caco-2 [5]) | drug sensitivity score (Calu-3 [6]) | drug sensitivity score (U2OS [7]) | drug sensitivity score (HepG2 [8]) | relative viability EC50 (Caco-2 [9]) [µM] | relative viability EC50 (Calu-3 [10]) [µM] | relative viability EC50 (U2OS [11]) [µM] | relative viability EC50 (HepG2 [12]) [µM] | cell viability (Vero E6 [13]; 1 nM) [%] | cell viability (Vero E6 [13]; 10 nM) [%] | cell viability (Vero E6 [13]; 100 nM) [%] | cell viability (Vero E6 [13]; 1000 nM) [%] | cell viability (Vero E6 [13]; 10000 nM) [%] | drug sensitivity score (Vero E6 [14]) | relative viability EC50 (Vero E6 [15]) [µM]
C=CCN1CCc2cc(O)c(O)cc2[C@H](c2ccccc2)C1 | 95.1 | 91.8 | 86.5 | 99.5 | 79.4 | 89.8 | 92 | 103 | 103 | 99 | 99.7 | 99.3 | 96.9 | 102 | 92.8 | 100 | 93.3 | 105 | 92.5 | 86.9 | 0.7 | 0 | 0 | 0.5 | > 10 | > 10 | > 10 | > 10 | – | – | – | – | – | – | –
COc1ccc2c(NC(=O)Nc3cccc(C(F)(F)F)n3)ccnc2c1 | 97.7 | 106 | 100 | 95.5 | 93.4 | 97.6 | 99 | 96.1 | 94.8 | 93.6 | 102 | 96.6 | 106 | 101 | 104 | 108 | 108 | 93.8 | 105 | 95.6 | 0 | 0 | 0 | 0 | > 10 | > 10 | > 10 | > 10 | – | – | – | – | – | – | –
COc1cccc(OCCCN)c1-c1cc(Nc2cnc(C#N)cn2)n[nH]1 | 98.9 | 101 | 86.7 | 15.5 | 21 | 106 | 99.9 | 69.6 | 48.1 | 57.8 | 101 | 86.7 | 5.2 | 2.8 | 2.5 | 97.4 | 97.4 | 35.7 | 38.3 | 25.6 | 17.6 | 13.3 | 31.6 | 21.7 | 0.194 | 0.0872 | 0.022 | 0.0431 | 92.9 | 101 | 84.9 | 61.1 | 65.3 | 9 | –
Cc1cnc(-c2cnc(NCCNc3ccc(C#N)cn3)nc2-c2ccc(Cl)cc2Cl)[nH]1 | 99.5 | 105 | 95.7 | 110 | 99.6 | 87.6 | 107 | 99.1 | 110 | 89.7 | – | – | – | – | – | 104 | 99.3 | 107 | 113 | 98.4 | 0 | 0 | – | 0 | > 10 | > 10 | – | > 10 | 101 | 100 | 94.9 | 97.6 | 76.8 | 1.2 | > 10
N#Cc1ccccc1OCC(O)CNCCNC(=O)Nc1ccccc1 (configuration not stated) | 101 | 102 | 91.4 | 99.5 | 101 | 100 | 94.7 | 102 | 92.8 | 92.4 | 99.5 | 94.3 | 95.3 | 95.7 | 97.1 | 108 | 102 | 110 | 107 | 93.6 | 0 | 0 | 0 | 0 | > 10 | > 10 | > 10 | > 10 | – | – | – | – | – | – | –
Nc1ccc(C(=O)NCC(=O)O)cc1 [4-aminohippuric-acid] | 97.1 | 99.7 | 100 | 89.5 | 93 | 106 | 91.1 | 109 | 106 | 101 | – | – | – | – | – | 100 | 107 | 99 | 104 | 89.8 | 0.1 | 0 | – | 0 | > 10 | > 10 | – | > 10 | 97.5 | 99.1 | 101 | 100 | 96.2 | 0 | > 10
CC(C)(C)c1ccc(/C=C/C(=O)Nc2ccc3c(c2)OCCO3)cc1 [AMG-9810] | 94.9 | 92.8 | 99.3 | 90.4 | 67.8 | 103 | 98.3 | 101 | 94.5 | 78.8 | 96.4 | 97.4 | 98.2 | 96.7 | 89.7 | 98.3 | 101 | 97.9 | 103 | 33.1 | 2.9 | 1.4 | 0 | 3.4 | – | > 10 | > 10 | 3.43 | 98.3 | 102 | 96 | 97 | 89.4 | 0 | > 10
Cc1cnc(CNC(=O)c2c(=O)c3ccc(N4CCCN(C)CC4)nc3n3c2sc2ccccc23)cn1 [CX-5461] | 106 | 114 | 95.5 | 121 | 75.9 | 93.9 | 105 | 100 | 100 | 84 | 99.5 | 102 | 96.9 | 106 | 98.4 | 110 | 108 | 110 | 71.6 | 30.5 | 0.5 | 0.3 | 0 | 7.6 | > 10 | > 10 | > 10 | 1.16 | 114 | 92.3 | 106 | 84.2 | 53.3 | 4.7 | –
CCCCCCN(CCCCCC)C(=O)Cc1c(-c2ccc(F)cc2)[nH]c2ccccc12 [FGIN-1-27] | 99.5 | 99.6 | 89.2 | 94.3 | 68.6 | 96 | 99.2 | 99.8 | 102 | 89 | 98.5 | 102 | 103 | 100 | 92.3 | 104 | 95.2 | 94.3 | 106 | 96.6 | 2.2 | 0 | 0 | 0 | – | > 10 | > 10 | > 10 | 98.6 | 94.5 | 94 | 95.2 | 92.8 | 0 | > 10
O=C(NCCS(=O)(=O)c1ccc(C(F)(F)F)cn1)c1ccc(Cl)cc1 [GSK3787] | 99.8 | 95.5 | 102 | 99.7 | 99.8 | 104 | 94.8 | 103 | 100 | 97.7 | – | – | – | – | – | 97.7 | 102 | 117 | 99.6 | 102 | 0 | 0 | – | 0 | > 10 | > 10 | – | > 10 | 97.8 | 97.3 | 91.2 | 89.9 | 101 | 0 | > 10
CCc1cnc(N2CCC(c3nc(COc4ccc(-n5cnnn5)cc4)cs3)CC2)nc1 [MBX-2982] | 95.8 | 107 | 86.9 | 96.1 | 67.5 | 97.5 | 92 | 109 | 102 | 103 | 103 | 94.8 | 96.7 | 96.2 | 93.7 | 97.4 | 94.6 | 93.2 | 99.7 | 36 | 2.1 | 0 | 0 | 3.5 | – | > 10 | > 10 | 3.13 | 102 | 106 | 105 | 97.2 | 80.4 | 0.9 | > 10
Cc1ccc(-c2ncn(-c3ccc(Nc4nccc(-c5cccc(N6CCOCC6)c5)n4)cc3)n2)cn1 [SR-3306] | 99.3 | 98.7 | 95.9 | 92.2 | 67.5 | 99.9 | 98.3 | 87.8 | 94.7 | 98.6 | 102 | 104 | 97.9 | 103 | 78 | 99.8 | 90.8 | 100 | 98.9 | 40.9 | 2.6 | 0 | 0.6 | 3.3 | – | > 10 | > 10 | 3.04 | 109 | 109 | 106 | 99.1 | 92.9 | 0 | > 10
COc1cccc(OC)c1OCCNC[C@H]1COc2ccccc2O1 [WB-4101] | 105 | 104 | 106 | 106 | 85.3 | 107 | 102 | 104 | 90.9 | 80.8 | – | – | – | – | – | 106 | 109 | 107 | 103 | 93.2 | 0.1 | 1.4 | – | 0 | > 10 | > 10 | – | > 10 | 104 | 100 | 99.1 | 98.2 | 98.5 | 0 | > 10
CC[N+](CC)(CCCNC1=CC(=O)C(NCCC[N+](CC)(CC)Cc2ccccc2)=CC1=O)Cc1ccccc1 [benzoquinonium-dibromide] | 94.5 | 98.6 | 95.4 | 96.3 | 91.7 | 103 | 92.9 | 108 | 104 | 96.8 | 94.6 | 94.4 | 96.8 | 95.8 | 98.3 | 96.3 | 106 | 95.2 | 100 | 95 | 0 | 0 | 0 | 0 | > 10 | > 10 | > 10 | > 10 | – | – | – | – | – | – | –
N#Cc1cnc2c(Cl)cc(NCc3cn(CCN4CCCCCC4)nn3)cc2c1Nc1ccc(F)c(Cl)c1 [cot-inhibitor-1] | 92.1 | 99.7 | 105 | 98 | 67.8 | 104 | 103 | 99.5 | 96.9 | 96.2 | 102 | 103 | 101 | 101 | 77 | 95 | 107 | 96.7 | 120 | 80.6 | 1.7 | 0 | 0.7 | 0.2 | – | > 10 | > 10 | > 10 | 94.2 | 102 | 92.2 | 96.9 | 103 | 0 | > 10
